Assay [1] deals with T1, human 5-hydroxytryptamine-2C (h5-HT2C) receptor (Homo sapiens, UniProt P28335).
T1 construct: expressed in transfected cells; host or cells: CHO (Chinese Hamster Ovary) cells; membranes
T1 sequence (P28335 33-458): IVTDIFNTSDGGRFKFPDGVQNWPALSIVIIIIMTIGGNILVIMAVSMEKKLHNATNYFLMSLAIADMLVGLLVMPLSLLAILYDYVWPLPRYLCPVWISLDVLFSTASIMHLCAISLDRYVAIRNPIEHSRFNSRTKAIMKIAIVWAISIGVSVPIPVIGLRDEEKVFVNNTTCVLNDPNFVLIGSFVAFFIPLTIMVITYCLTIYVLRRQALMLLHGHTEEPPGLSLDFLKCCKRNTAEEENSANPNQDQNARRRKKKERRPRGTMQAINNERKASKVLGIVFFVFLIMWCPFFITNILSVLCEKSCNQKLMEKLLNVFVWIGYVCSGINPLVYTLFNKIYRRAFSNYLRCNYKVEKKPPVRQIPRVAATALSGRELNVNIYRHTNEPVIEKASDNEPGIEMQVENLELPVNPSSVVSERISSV
As to the kind of experiment: [125I]DOI binding to membranes of CHO cells expressing the human 5-HT2C receptor. The conditions noted are these: [125I]DOI radioligand, CHO cell membranes, room temperature 60 min; read-out: 5-HT2C Affinity Ki.

For the next assay, the target named is T2, human 5-HT2C receptor (Homo sapiens, UniProt P28335).
T2 sequence (P28335 33-458): T1 sequence (P28335 33-458)
As to the kind of experiment: 5-HT2C receptor-stimulated calcium mobilization (FLIPR) in CHO cells.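 As to all read-outs here: Fluo-3-AM fluorescence read on FLIPR every 1 s, agonist added after 10 baseline reads, response taken as peak minus lowest raw fluorescence count.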 The format is cell-based. The settings on record: for Emax: CHO, read-out: 5-HT2C Function Emax (%); for Emax / 5-HT2C Function Emax (%): percentage of the response observed with a maximally effective concentration of 5-HT; for EC50: calcium mobilization, CHO cells stably expressing human 5-HT2C, read-out: 5-HT2C Function EC50. Background: Calcium flux is commonly read through the fluorescence of an indicator in the cells.

As usually defined, the Ki is a measure of affinity in units of concentration, obtained from inhibition or displacement. What is called Emax is the maximal effect, on the per cent scale that the assay sets. As usually defined, the EC50 is the midpoint of the concentration-response curve.

As for `COc1cc2c(c(-c3cccc(F)c3F)c1)OC(CN)C2` (racemic) [Example 361, (±)-{[7-(2,3-difluorophenyl)-5-methoxy-2,3-dihydro-1-benzofuran-2-yl]methyl}amine], the inhibitory constant (Ki) in assay [1] was determined as 33 nM. Further, at human 5-HT2C receptor, the Emax was determined as 90% and the half-maximal effective concentration (EC50) turned out to be 73 nM.
Taken in the same sequence, the figures for `COc1cc2c(c(-c3ccccc3OC)c1)OC(CN)C2` (racemic) [Example 359, (±)-{[7-(2-methoxyphenyl)-5-methoxy-2,3-dihydro-1-benzofuran-2-yl]methyl}amine] were 10 nM, 90% and 8 nM.
Taken in the same sequence, the figures for `COc1ccc(-c2cc(F)cc3c2OC(CN)C3)cc1` (racemic) [Example 202, (±)-{[5-fluoro-7-(4-methoxyphenyl)-2,3-dihydro-1-benzofuran-2-yl]methyl}amine] were 11 nM, 80% and 105 nM.
Regarding `NCC1Cc2cccc(-c3ccc(Cl)cc3Cl)c2O1` (single isomer, unassigned; (+)) [Example 150, (+)-1-[7-(2,4-dichlorophenyl)-2,3-dihydro-1-benzofuran-2-yl]methanamine], the inhibition constant Ki in assay [1] was found to be 4.1 nM. At human 5-HT2C receptor, the 50% effective concentration (EC50) is 74 nM and the “5-HT2C Function Emax (%)” value is given as 100%.
As for `Cc1ccc(C)c(-c2cc(F)cc3c2OC(CN)C3)c1` (racemic) [Example 222, (±)-{[7-(2,5-dimethylphenyl)-5-fluoro-2,3-dihydro-1-benzofuran-2-yl]methyl}amine], the inhibition constant Ki in assay [1] was 18 nM. In addition, on human 5-HT2C receptor, the Emax was found to be 80% and the EC50 worked out at 120 nM.
As for `CC(C)c1cccc2c1OC(CN)C2` (single isomer, unassigned; (+)) [Example 20, (+)-(7-isopropyl-2,3-dihydro-1-benzofuran-2-yl)methylamine], the Ki in assay [1] was determined as 24 nM. Also, at human 5-HT2C receptor, the concentration for a half-maximal effect (EC50) amounted to 178 nM and the “5-HT2C Function Emax (%)” value is reported as 70%.
For `CNCC1Cc2cc(C)cc(-c3ccc(Cl)cc3Cl)c2O1` (racemic) [Example 485, (±)-{[7-(2,4-dichlorophenyl)-5-methyl-2,3-dihydro-1-benzofuran-2-yl]methyl}methylamine], the inhibition constant Ki in assay [1] came to 3 nM. For the same compound, on human 5-HT2C receptor, the Emax was 90% and the 50% effective concentration (EC50) worked out at 32 nM.
On the same counts, the results for `NCC1Cc2c(cccc2-c2ccccc2)O1` (single isomer, unassigned; (+)) [Example 2, (+)-1-(4-phenyl-2,3-dihydro-1-benzofuran-2-yl)methanamine] are 16 nM, 90% and 61 nM.
Regarding `NCC1Cc2cccc(-c3c(Cl)cccc3Cl)c2O1` (single isomer, unassigned; (+)) [Example 142, (+)-1-[7-(2,6-dichlorophenyl)-2,3-dihydro-1-benzofuran-2-yl]methanamine], the Ki in assay [1] worked out at 1.6 nM. In addition, on human 5-HT2C receptor, the EC50 stood at 101 nM and the “5-HT2C Function Emax (%)” value is given as 80%.
As for `COc1ccccc1-c1cccc2c1OC(CN)C2` (racemic) [Example 59, (±)-1-[7-(2-methoxyphenyl)-2,3-dihydro-1-benzofuran-2-yl]methanamine], the inhibition constant Ki in assay [1] was determined as 2 nM. Further, at human 5-HT2C receptor, the Emax is 100% and the EC50 is 127 nM.
On the same counts, the results for `NCC1Cc2cc(Cl)cc(-c3c(Cl)cccc3Cl)c2O1` (racemic) [Example 263, (±)-{[5-chloro-7-(2,6-dichlorophenyl)-2,3-dihydro-1-benzofuran-2-yl]methyl}amine] are 1.8 nM, 100% and 0.8 nM.
Turning to `NCC1Cc2cccc(-c3c(Cl)cccc3Cl)c2O1` (racemic) [Example 140, (±)-1-[7-(2,6-dichlorophenyl)-2,3-dihydro-1-benzofuran-2-yl]methanamine], in assay [1], the Ki was 0.3 nM. On human 5-HT2C receptor, the Emax was 90% and the concentration giving a half-maximal response (EC50) was 0.72 nM.
On the same counts, the results for `CNCC1Cc2cc(OC)cc(-c3c(C)cccc3C)c2O1` (single isomer, unassigned; (-)) [Example 560, (−)-{[7-(2,6-dimethylphenyl)-5-methoxy-2,3-dihydro-1-benzofuran-2-yl]methyl}methylamine] are 0.35 nM, 100% and 2 nM.
On the same counts, the results for `NCC1Cc2cc(Cl)cc(-c3cccc(F)c3F)c2O1` (single isomer, unassigned; (-)) [Example 245, (−)-{[5-chloro-7-(2,3-difluorophenyl)-2,3-dihydro-1-benzofuran-2-yl]methyl}amine] are 2 nM, 100% and 57 nM.
On the same counts, the results for `CNCC1Cc2cc(F)cc(-c3ccccc3F)c2O1` (racemic) [Example 438, (±)-{[5-fluoro-7-(2-fluorophenyl)-2,3-dihydro-1-benzofuran-2-yl]methyl}methylamine] are 2.4 nM, 70% and 68 nM.
As to `COc1cccc(-c2cc(C)cc3c2OC(CN)C3)c1OC` (racemic) [Example 294, (±)-{[7-(2,3-dimethoxyphenyl)-5-methyl-2,3-dihydro-1-benzofuran-2-yl]methyl}amine], in assay [1], the Ki was determined as 0.11 nM. Further, at human 5-HT2C receptor, the Emax amounted to 90% and the half-maximal effective concentration (EC50) was 8 nM.
Taken in the same sequence, the figures for `NCC1Cc2c(cccc2-c2ccccc2C(F)(F)F)O1` (racemic) [Example 122, (±)-1-{4-[2-(trifluoromethyl)phenyl]-2,3-dihydro-1-benzofuran-2-yl}methanamine] were 95 nM, 70% and 931 nM.
On the same counts, the results for `NCC1Cc2cccc(-c3ccccc3Cl)c2O1` (racemic) [Example 60, (±)-1-[7-(2-chlorophenyl)-2,3-dihydro-1-benzofuran-2-yl]methanamine] are 0.3 nM, 100% and 12 nM.
On the same counts, the results for `COc1ccc(C)cc1-c1cc(F)cc2c1OC(CN)C2` (racemic) [Example 225, (±)-{[5-fluoro-7-(2-methoxy-5-methylphenyl)-2,3-dihydro-1-benzofuran-2-yl]methyl}amine] are 1.2 nM, 90% and 3 nM.
As for `NCC1Cc2cccc(-c3ccccc3C(F)(F)F)c2O1` (single isomer, unassigned; (+)) [Example 55, (+)-1-{7-[2-(trifluoromethyl)phenyl]-2,3-dihydro-1-benzofuran-2-yl}methanamine], in assay [1], the inhibition constant Ki stood at 3 nM. For the same compound, on human 5-HT2C receptor, the EC50 came out at 48 nM and the “5-HT2C Function Emax (%)” value was found to be 70%.
As to `NCC1Cc2cc(C(F)(F)F)cc(-c3cc(F)ccc3F)c2O1` (racemic) [Example 336, (±)-{[7-(2,5-difluorophenyl)-5-(trifluoromethyl)-2,3-dihydro-1-benzofuran-2-yl]methyl}amine], in assay [1], the Ki is 45 nM. For the same compound, at human 5-HT2C receptor, the maximal effect (Emax) was 90% and the EC50 is 123 nM.
On the same counts, the results for `CNCC1Cc2cc(C(F)(F)F)cc(-c3ccc(OC)cc3OC)c2O1` (racemic) [Example 526, (±)-N-methyl-1-[7-(2,4-dimethoxyphenyl)-5-(trifluoromethyl)-2,3-dihydro-1-benzofuran-2-yl]methanamine] are 25 nM, 90% and 50 nM.
Taken in the same sequence, the figures for `NCC1Cc2cccc(-c3c(Cl)cccc3Cl)c2O1` (single isomer, unassigned; (-)) [Example 141, (−)-1-[7-(2,6-dichlorophenyl)-2,3-dihydro-1-benzofuran-2-yl]methanamine] were 0.07 nM, 90% and 0.03 nM.
Taken in the same sequence, the figures for `COc1ccc(-c2cccc3c2OC(CN)C3)c(OC)c1` (racemic) [Example 143, (±)-1-[7-(2,4-dimethoxyphenyl)-2,3-dihydro-1-benzofuran-2-yl]methanamine] were 6.3 nM, 90% and 1 nM.
Consider `CC(C)c1cc2c(c(-c3ccccc3Cl)c1)OC(CN)C2` (racemic) [Example 308, (±)-{[5-isopropyl-7-(2-chlorophenyl)-2,3-dihydro-1-benzofuran-2-yl]methyl}amine], for which the inhibition constant (Ki) in assay [1] was determined as 0.9 nM. Also, at human 5-HT2C receptor, the Emax was determined as 90% and the EC50 turned out to be 24 nM.
On the same counts, the results for `NCC1Cc2cc(F)cc(-c3cc(F)ccc3F)c2O1` (racemic) [Example 220, (±)-{[7-(2,5-difluorophenyl)-5-fluoro-2,3-dihydro-1-benzofuran-2-yl]methyl}amine] are 8 nM, 90% and 30 nM.
Taken in the same sequence, the figures for `NCC1Cc2cc(F)cc(-c3ccccc3)c2O1` (racemic) [Example 103, (±)-1-(5-fluoro-7-phenyl-2,3-dihydro-1-benzofuran-2-yl)methanamine] were 7 nM, 80% and 996 nM.
On the same counts, the results for `Cc1cc2c(c(-c3cc(Cl)ccc3Cl)c1)OC(CN)C2` (racemic) [Example 300, (±)-{[7-(2,5-dichlorophenyl)-5-methyl-2,3-dihydro-1-benzofuran-2-yl]methyl}amine] are 0.1 nM, 90% and 3 nM.

The values above are taken from US7435837B2, “Dihydrobenzofuranyl alkanamine derivatives and methods for using same” (Wyeth, priority 2003, dated 2008).
